Experimental data from US9932589B2, “EML4-ALK fusion gene” (Astellas Pharma Inc., priority 2006, dated 2018).

Columns and labels:
[1] = system: EML4-ALK fusion polynucleotide v1; test: siRNA inhibition of mRNA expression of EML4-ALK fusion polynucleotide v1 in v1 expressing 3T3 cells, quantitative PCR; type: cell-based, mouse; settings: siRNA 20 nM, 72 hours
Method: (§1) The v1 expressing 3T3 cells and U-87MG cells were seeded to 12 well plates (IWAKI; Asahi techno glass corp.) at 50,000 cells and 150,000 cells, respectively. Four hours later, using a transfection reagent (Lipofectamine RNAiMax; Invitrogen Inc.), siRNA-1 to siRNA-9 were prepared to a final concentration of 20 nM and transfected to cells according to the attached instruction. In addition, as a control no siRNA transfection samples were prepared. After 72 hours, the medium was removed, and total RNA was extracted using an RNA purification kit (RNeasy Mini Kit; QIAGEN Inc.) according to the attached instruction, and cDNA was prepared using a cDNA synthesizing kit (ThermoScript RT-PCR System; Invitrogen Inc.) according to the attached instruction.
(§2) The amount of expressed mRNA of the EML4-ALK fusion polynucleotide v1 in v1 expressing 3T3 cells and the amount of mRNA of the ALK gene in U-87MG cells were quantitated using a quantitative PCR reagent (Power SYBR Green PCR Master Mix; Applied Biosystems Inc.) The PCR reaction was carried out as follows: after 10 minutes incubation at 95° C., 45 cycles of 95° C. for 15 seconds and 60° C. for 60 seconds, and then one cycle of 95° C. for 15 seconds, 60° C. for 15 seconds and 95° C. for 15 seconds to complete the reaction. In addition, to calibrate the amount of expression, the amount of expression of the mouse cyclophilin B gene and the human GAPDH gene was similarly quantitated for v1 expressing 3T3 cells and U-87MG cells, respectively. Analyses were carried out using a sequence detector (ABI PRISM 7900 Sequence Detection System; Perkin-Elmer Applied Biosystems Inc.).
(§3) Oligo nucleotides consisting of the base sequences represented by SEQ ID NO: 44 and 48, SEQ ID NO: 50 and 56, SEQ ID NO: 44 and 48 and SEQ ID NO: 12 and 13 were used as the primer sets that specifically recognize the EML4-ALK fusion polynucleotide v1, the mouse cyclophilin B gene, the human ALK gene and the human GAPDH gene. Also, to obtain a standard curve to calculate the amount of respective mRNA, PCR was performed using human genomic DNA (Clontech) as a template for EML4-ALK fusion polynucleotide v1, human ALK and human GAPDH, and using mouse genomic DNA (Clontech) as a template for mouse cyclophilin B and the aforementioned primer sets under the same condition. Since a primer set corresponding to human ALK polynucleotide exon 29 was used to detect the EML4-ALK fusion polynucleotide v1, the standard curve can be obtained using human genomic DNA. The expression amount of the EML4-ALK fusion polynucleotide v1 and the human ALK gene in respective samples was calibrated with the expression amount of the mouse cyclophilin B gene and the human GAPDH gene to obtain the calibrated expression amount.

[2] = system: human ALK gene; test: siRNA inhibition of mRNA expression of ALK gene in U-87MG cells, quantitative PCR; type: cell-based; settings: siRNA 20 nM, 72 hours
Method: as §1, §2, §3

[3] = system: U-87MG cells; test: anchorage independent growth on spheroid plate, U-87MG cells expressing full length ALK; type: cell-based, human; settings: siRNA transfected, 3 days
Method: (§4) The v1 expressing 3T3 cells (Example 6(1)) and one of the human glioma cells expressing the full length ALK polypeptide and not expressing EML4-ALK fusion polynucleotide endogenously, U-87 MG cells, were seeded to a 96 well spheroid plate (Sumilon Celltight Spheroid 96U, Sumitomo Bakelite Inc.) at 3000 cells per well in a medium containing 10% fetal bovine serum (DMEM for v1 expressing 3T3 cells and RPMI 1640 for U-87MG). […] At the same time, cells were counted before the addition of drugs (Day 0). Then, cells were cultured under 5% CO2, at 37° C. for 3 days, mixed with a reagent for measuring cell number (CellTiter-Glo™ Luminescent Cell Viability Assay; Promega Inc.) stirred for 20 minutes, and the measurements (day 3) were carried out using a luminometer (ML3000 microtiter plate luminometer; Dynatech Laboratories Inc.).

[4] = system: v1 expressing 3T3 cells; test: anchorage independent growth on spheroid plate, v1 expressing 3T3 cells; type: cell-based, mouse; settings: siRNA transfected, 3 days
Method: as §4

## siRNA-9: negative control siRNA, SEQ ID NO: 127 and 128, base sequence not present in mammalian cells (chain 1 CGGCUGCAAUCGATTGATAGC; chain 2 TATCAAUCGAUUGCAGCCGAA; chemistry not given here)
[1]
  expression inhibitory effect on the EML4-ALK fusion polynucleotide (in words): did not demonstrate strong expression inhibitory effect
[1]; mRNA
  Inhibition rate for EML4-ALK gene expression (v1 expressing 3T3 cells): 29%
[2]
  expression inhibitory effect on the human ALK gene (in words): did not demonstrate strong expression inhibitory effect
[2]; mRNA
  Inhibition rate for ALK gene expression (U-87 MG cells): −31%
[3]
  growth of U-87MG cells (in words): did not inhibit the growth
[3]; spheroid plate
  U-87MG cell growth inhibition rate: −16%
[4]
  anchorage independent growth of v1 expressing 3T3 cells (in words): did not inhibit the growth
[4]; spheroid plate
  v1 expressing 3T3 cells growth inhibition rate: −35%
